Here are results for 5 sequences from US9151757B2, “Detecting antigen responsive cells in a sample” (Stichting Sanquin Bloedvoorziening, priority 2008, dated 2015).

The subject of this experiment is CD8+ T cells in PBMCs. The experiment in a line: Combinatorial coding MHC multimer flow cytometry of enriched, in vitro expanded PBMCs. The following applies: enriched PBMCs from 27 HLA-A3 positive melanoma patients, after MACS enrichment and short term in vitro expansion. Type of experiment: cell-based, human.
Take QLRALDGGNK (listed as Homo sapiens): the “CD8+ T cell responses against peptide detected by dual color-encoded pMHC multimer staining” value (from here on “CD8+ T cell responses”) is “CD8^+ T cell responses were observed”. Regarding RMYNMVPFF (listed as Homo sapiens), the “CD8+ T cell responses” value was “CD8^+ T cell responses were observed”. Next, SLYRDPLPR (listed as Homo sapiens): “CD8^+ T cell responses were observed”; “GTYEGLLRR (listed as Homo sapiens) [Tyrp2 301-309, unknown HLA-A3 associated T cell antigen]”: “identification of the unknown HLA-A3 associated T cells antigens”.

Consider HAYIQSLLK (listed as Homo sapiens), for which the “CD8+ T cell responses” value is “CD8^+ T cell responses were observed”.
